{"source": "patent US20040006070A1", "about": "“Intraspinal continuous infusion of midazolam hydrochloride for the treatment of pain” (priority 2002, published 2004)", "key": {"[1]": {"tested_on": "neuropathic pain model in the sheep", "assay": "Neuropathic pain model in sheep, mechanical stimulus device", "type": "in vivo", "details": "for Mechanical Stimulus device: sheep Rowdy #819", "text": "The neuropathic pain model in the sheep is created by placing four tight ligatures around the median, radial, or ulnar nerve (or a combination thereof) with 0-chromic gut suture. This method produces a chronic painful peripheral mononeuropathy which may be related to those conditions seen in humans with causalgia and reflex sympathetic dystrophy. To date, the onset of neuropathic pain has occurred 1 to 9 days postoperatively, as evidenced by the display of painful behavior such as hyperalgesia, not bearing weight or holding the operated leg off the ground. The duration of the painful behavior lasted 16 to 62 days. […] It has been difficult to identify a segment of the median nerve that is consistently appropriate to achieve the neuropathic pain behavior. The inventors are continuing to test different segments of the median nerve and other mixed sensory/motor nerves to consistently produce this behavior. Of the five animals that developed neuropathic pain, three were treated with intrathecal morphine or midazolam as single agents.\nIn the sheep with neuropathic pain treated by midazolam alone, intrathecal administration of midazolam was initiated at 3 to 5 mg/day and the dose was escalated to up to 15 mg/day. […] This analgesia was documented using a mechanical stimulus device and/or behavior monitoring. The mechanical stimulus device measures pressure applied to a blunt pin against the foreleg. The pressure at which the animal lifts its leg in response to the painful stimulus is documented. In the sheep monitored by this device, administration of intrathecal midazolam allowed endurance of up to 18 Newtons of pressure (cut off to prevent tissue damage was set at 19.99 N) compared to the baseline (pretreatment) pressure endured of 9.59 N.\nA mechanical stimulus device as described in Example 6, and/or behavior monitoring as described in Example 5 is used to test analgesic effect in the neuropathic pain model. To compare the effects of midazolam using the mechanical stimulus device, the data were accumulated over the testing period, and all response latencies were expressed as percentage of the maximum possible effect (MPE) where: [formula]\nThis test will be conducted prior to initiation of midazolam infusion and again on days 1, 3, 7, 15, 22, 29, 36, 43 during infusion. The mechanical stimulus device has been developed and validated (Nolan et al. 1987; Kyles et al., 1995) for pain testing in the sheep model."}, "[2]": {"assay": "Gait monitoring, four-grade scale of behavioral and motor changes", "type": "in vivo, sheep", "parameters": "key: Grade 0: animal standing, sheep is able to rise and ambulate without any difficulty; Grade 1: Shuffling of either rear leg or slight limp; slight distortion of normal spinal axis; Grade 2: Loss of righting reflex in one of the rear legs, sheep able to stand without assistance, but with some difficulty; Grade 3: Inability to maintain standing posture; attempts to help animal stand are unsuccessful", "details": "day (1-43)", "text": "Daily rectal temperatures were taken and any behavioral/motor changes were noted. Gait monitoring will be conducted as described below based on a four-grade scale for the evaluation of behavioral and motor changes. Grade 0: animal standing, sheep is able to rise and ambulate without any difficulty. Grade 1: Shuffling of either rear leg or slight limp; slight distortion of normal spinal axis. Grade 2: Loss of righting reflex in one of the rear legs, sheep able to stand without assistance, but with some difficulty. Grade 3: Inability to maintain standing posture; attempts to help animal stand are unsuccessful."}, "Acute Pain Sheep Model": {"tested_on": "Acute Pain Sheep Model", "assay": "Mechanical stimulus device nociceptive testing (% MPE), acute pain sheep model", "type": "in vivo", "protocol": "Open-label (known dose) trial: A trial with known midazolam doses was performed in the first 7 sheep. Animals were administered 3 mg/day (N=1), 5 mg/day (N=1), 10 mg/day (N=1), and 15 mg/day (N=4) for 43 days. These doses were chosen based upon previous intrathecal bolus dose studies in rats and humans, with conversion of from species to species based on cerebral spinal fluid (CSF) production rate and total CSF volume. Analgesic activity was assessed using a mechanical stimulus device which produces a stimulus of acute pain by application of force via a blunt needle applied to the shaved front foreleg of the animal. Force is applied with increasing pressure until the animal lifts its leg in response to the painful stimulus. To evaluate the analgesic effect of midazolam, response latencies were expressed as a percentage of the maximum possible effect, % MPE. The response latency is defined as follows: [formula]\nA mechanical stimulus device was used for the pain stimulus. […] The force applied to the pin was measured by strain gauges that are incorporated into the device on the leg. The output from the strain gauges was recorded on a millivoltmeter in the control box. […] To compare the effects of midazolam, the data were accumulated over the testing period, and all response latencies were expressed as percentage of the maximum possible effect (MPE) where: [formula] […]"}, "[3]": {"details": "rabbit, intrathecal bolus 0.1% midazolam or preservative-free midazolam in 0.3 ml, one or five days; cited from earlier work"}}, "note": "Counter-ions that a name gives are not always drawn.", "data": [{"smiles": "Cc1ncc2n1-c1ccc(Cl)cc1C(c1ccccc1F)=NC2", "note": "[Midazolam, midazolam hydrochloride]", "values": [{"measurement": "pressure endured (mechanical stimulus device)", "setting": "[1]; Sheep #819, cut off 19.99 N, baseline (pretreatment) 9.59 N", "result": "up to 18 Newtons"}, {"measurement": "analgesia", "setting": "[1]; neuropathic pain sheep, midazolam alone, 3 to 5 mg/day escalated up to 15 mg/day intrathecal", "result": "significant analgesia"}, {"measurement": "Mechanical Stimulus device", "setting": "[1]; 10 mg", "result": 13.7, "unit": "N"}, {"measurement": "Mechanical Stimulus device", "setting": "[1]; 15 mg", "result": 7.0, "unit": "N"}, {"measurement": "Gait Normal 0", "setting": "[2]; double blinded sheep Chicken Hawk #87, 5 mg/day intrathecal infusion", "result": 0}, {"measurement": "Gait Normal 0", "setting": "[2]; double blinded sheep Elmer Fudd #437, 5 mg/day intrathecal infusion", "result": 0}, {"measurement": "Gait Normal 0", "setting": "[2]; double blinded sheep Leghorn II #815, 15 mg/day intrathecal infusion", "result": 0}, {"measurement": "Gait Normal 0", "setting": "[2]; double blinded sheep Petunia #439, 15 mg/day intrathecal infusion", "result": 0}, {"measurement": "Gait Normal 0", "setting": "[2]; double blinded sheep Porky #402, 5 mg/day intrathecal infusion", "result": 0}, {"measurement": "Gait Normal 0", "setting": "[2]; double blinded sheep Roadrunner #84, 15 mg/day intrathecal infusion", "result": 0}, {"measurement": "Gait Normal 0", "setting": "[2]; open label sheep #457 Tazz, 15 mg/day intrathecal infusion", "result": 0}, {"measurement": "Gait Normal 0", "setting": "[2]; open label sheep #498 Toad, 10 mg/day intrathecal infusion", "result": 0}, {"measurement": "Gait Normal 0", "setting": "[2]; open label sheep #518 Sandy, 5 mg/day intrathecal infusion", "result": 0}, {"measurement": "Gait Normal 0", "setting": "[2]; open label sheep Dot #85, 15 mg/day intrathecal infusion", "result": 0}, {"measurement": "Gait Normal 0", "setting": "[2]; open label sheep Wacko #83, 15 mg/day intrathecal infusion", "result": 0}, {"measurement": "Gait Normal 0", "setting": "[2]; open label sheep Yacko #91, 15 mg/day intrathecal infusion", "result": 0}, {"measurement": "pain relief", "setting": "Acute Pain Sheep Model; closed-label study, 5 or 15 mg/day intrathecal", "result": "significant pain relief"}, {"measurement": "pain relief", "setting": "Acute Pain Sheep Model; open-label trial, all treated animals, 5-15 mg/day intrathecal for 43 days", "result": "significant pain relief"}, {"measurement": "neurotoxicity", "setting": "[3]", "result": "neurotoxicity"}]}]}
